Data on two molecules can be found in US20180311334A1, “Compositions and Methods for Inducing an Immune Response” (Yale University, priority 2017, published 2018).

The subject of one data set is WT S. aureus Newman. Put plainly: S. aureus growth in presence of copper (optical density). To be noted: 2 mM copper, 4.25 hours, absorbance at 600 nm. The format is cell-based, Staphylococcus aureus. The protocol:
WT S. aureus Newman was grown in the presence and absence of 2 mM copper for 4.25 hours. Growth was monitored by optical density: absorbance measurements were taken every 15 minutes at 600 nm.

Data set [1] deals with murine bone marrow-derived macrophages. Put plainly: qPCR of cytokine mRNA in bone marrow-derived macrophages (BMM). The data set is classed as cell-based, C57BL/6 mice. The following applies: 1 μM soluble xyliquimod, 12 hours, WT and TLR7KO BMM. The protocol: Finally, before leaving the sortase-based xyliquimod incorporation approach behind altogether, it was tested it in a more physiologically relevant experimental system. To this end, stimulations in murine bone marrow-derived macrophages (BMM) were performed and the resulting immune responses were assessed by quantifying expression of IL-1β, a pro-inflammatory cytokine transcriptionally regulated by NFκB. Besides more accurately recapitulating the physiological response to an immune stimulus than the RAW-NFκB-sLuc assay, the primary macrophage model offered two additional advantages over reporter cell lines. First, the dynamic range of qPCR analysis is far greater than that of the luciferase assay, so smaller differences in immune activation can be detected more readily. […]
After stimulation of BMDCs and BMMs, the supernatant was removed, cells were lysed, and RNA was isolated using the RNeasy kit (Qiagen, Germantown, Md.) according to manufacturer's instructions. cDNA was reverse-transcribed with an oligo(dT) primer using Moloney murine leukemia virus reverse transcriptase (MMLV RT). cDNA was analyzed in triplicate by qPCR amplification using SYBR Green Supermix (Life Technologies, Carlsbad, Calif.) on a Bio-Rad CFX96 Real-Time PCR Detection System (Bio-Rad, Hercules, Calif.). […]
A general note: In qPCR the cycle at which signal appears reflects the starting amount.

Take copper: the S. aureus growth result in the data set on WT S. aureus Newman is on record as “completely inhibit S. aureus growth”.

Turning to `CCCCc1nc2c(N)nc3ccccc3c2n1Cc1ccc(CN)cc1` [xyliquimod, 1-(4-(aminomethyl)benzyl)-2-butyl-1Himidazo[4,5-c]quinolin-4-amine], the “IL-1β mRNA expression” value in data set [1] was “active in WT and not TLR7KO macrophages”.
